Data taken from US20190276376A1, “CAPSULES COMPRISING BENZYLPROPARGYLETHERS FOR USE AS NITRIFICATION INHIBITORS” (BASF SE, priority 2016, published 2019).

Experiments:
[1] = Vapor pressure by thermogravimetry; type: physicochemical; settings: at 20° C.; Mettler Toledo STAR thermogravimeter
Procedure: The vapor pressure can be determined by thermogravimetry by methods known in the art. In the context of the present invention, a Mettler Toledo STAR thermogravimeter with 5 mg sample on a glass plate may be used. As a reference compound, 3,4-dimethyl pyrazole (DMP) was inter alia measured and a vapor pressure of 3.7 Pa at 20° C. was determined.

N2O emissions = N2O emissions from potted lettuce in greenhouse soil, gas chamber sampling, GC-ECD; type: in vivo, Green head lettuce; settings: total cumulated N2O emissions, % inhibition compared to control; greenhouse 20° C., 60% humidity
Procedure: Green head lettuce was seeded in seedling boxes. Once the 4 leaf stage was reached one plant was potted into a 8 cm pot in standard greenhouse soil (mixture of peat, loam and sand) and grown in the greenhouse at 20° C. and 60% humidity. One week after planting the plants, the pots were separated out and each pot set onto a plant saucer designed with an inner compartment for the pot and an outer ring that is filled with water. At time 0, water with or without various concentrations of fertilizer and with either empty formulation or formulated capsule suspensions was applied to the plant such that the water holding capacity of the soil was around 50%. Then a gas sampling chamber was placed over the plant saucer such that the rim fit into the ring filled with water to create a gas-tight chamber and 20 cc air from the chamber were drawn into a syringe and immediately emptied in to a Vacutainer (Labco, 12 ml volume). This equals the Time Zero measurement for each pot. The same procedure was performed with all pots in the experiment. After incubation time of 1 h, again 20 cc air samples were taken from the gas chambers and emptied into Vacutainers as described above. […]
Samples were analyzed in a Shimadzu 2014 GC equipped with an ECD system. Total cumulated N2O emissions were calculated and related by calculating the % inhibition compared to control.

SMILES | vapor pressure [1] | Inhibition (%) N2O emissions (N2O emissions)
Cc1cn[nH]c1C [3,4-dimethyl pyrazole (DMP), 3,4-dimethyl pyrazole] | 3.7 Pa | –
C#CCOCc1ccc(Cl)cc1 [Example A-10] | – | 25%
